Measurements reported in the NIST ThermoML archive (doi:10.1016/j.jct.2014.03.001).
± gives the expanded uncertainty stated by the source.

Assays:
[1] = mn = molality of the nth substance listed, in mol/kg; conditions: 84.51 kPa, Liquid; for speed of sound: Frequency=3 MHz, Sing-around technique in a fixed-path interferometer; for mass density: Vibrating tube method
[2] = 313.15 K; 84.51 kPa; Liquid; Frequency=3 MHz; Sing-around technique in a fixed-path interferometer

speed of sound ([1]; 288.15 K, m1 = 0.035) [m/s] | mass density ([1]; 288.15 K, m1 = 0.035) [kg/m3] | speed of sound ([1]; 293.15 K, m1 = 0.035) [m/s] | mass density ([1]; 293.15 K, m1 = 0.035) [kg/m3] | speed of sound ([1]; 298.15 K, m1 = 0.035) [m/s] | mass density ([1]; 298.15 K, m1 = 0.035) [kg/m3] | speed of sound ([1]; 303.15 K, m1 = 0.035) [m/s] | mass density ([1]; 303.15 K, m1 = 0.035) [kg/m3] | speed of sound ([1]; 308.15 K, m1 = 0.035) [m/s] | mass density ([1]; 308.15 K, m1 = 0.035) [kg/m3] | speed of sound ([1]; 313.15 K, m1 = 0.035) [m/s] | mass density ([1]; 313.15 K, m1 = 0.035) [kg/m3] | speed of sound [2] [m/s] | speed of sound ([1]; 313.15 K, m2 = 0) [m/s] | SMILES
1470.9 ± 1.5 | 1003.96 ± 0.2 | 1486.8 ± 1.5 | 1003.05 ± 0.2 | 1500.8 ± 1.5 | 1001.87 ± 0.2 | 1513 ± 1.5 | 1000.46 ± 0.2 | 1523.5 ± 1.5 | 998.83 ± 0.2 | 1532.4 ± 1.5 | 997.003 ± 0.2 | – | – | [Cl][Fe]([Cl])[Cl] [ferric chloride] + O
1471.1 ± 1.6 | 1002.4 ± 0.26 | 1487.1 ± 1.6 | 1001.48 ± 0.26 | 1501.3 ± 1.6 | 1000.31 ± 0.26 | 1513.5 ± 1.6 | 998.899 ± 0.26 | 1524 ± 1.6 | 997.276 ± 0.26 | – | 995.455 ± 0.26 | – | – | [Cl-].[Cl-].[Mg+2] [magnesium chloride] + O
1468.5 ± 1.5 | 1000.79 ± 0.2 | 1484.5 ± 1.5 | 999.873 ± 0.2 | 1498.7 ± 1.5 | 998.698 ± 0.2 | 1510.9 ± 1.5 | 997.288 ± 0.2 | 1521.5 ± 1.5 | 995.661 ± 0.2 | 1530.5 ± 1.5 | 993.836 ± 0.2 | – | – | [Cl-].[K+] [potassium chloride] + O
– | – | – | – | – | – | – | – | – | – | – | – | – | 1529.2 ± 1.2 | O [water] + CCCCCCCCCCCCn1cc[n+](C)c1.[Br-]

The next lines start with the compound.

SMILES | speed of sound ([1]; 288.15 K, m1 = 0.035) [m/s] | mass density ([1]; 288.15 K, m1 = 0.035) [kg/m3] | speed of sound ([1]; 293.15 K, m1 = 0.035) [m/s] | mass density ([1]; 293.15 K, m1 = 0.035) [kg/m3] | speed of sound ([1]; 298.15 K, m1 = 0.035) [m/s] | mass density ([1]; 298.15 K, m1 = 0.035) [kg/m3] | speed of sound ([1]; 303.15 K, m1 = 0.035) [m/s] | mass density ([1]; 303.15 K, m1 = 0.035) [kg/m3] | speed of sound ([1]; 308.15 K, m1 = 0.035) [m/s] | mass density ([1]; 308.15 K, m1 = 0.035) [kg/m3] | speed of sound ([1]; 313.15 K, m1 = 0.035) [m/s] | mass density ([1]; 313.15 K, m1 = 0.035) [kg/m3] | speed of sound [2] [m/s] | speed of sound ([1]; 313.15 K, m2 = 0) [m/s]
Cl.N [ammonium chloride (NH4Cl)] + O | 1468.2 ± 1.4 | 999.719 ± 0.17 | 1484.2 ± 1.4 | 998.814 ± 0.17 | 1498.4 ± 1.4 | 997.645 ± 0.17 | 1510.7 ± 1.4 | 996.243 ± 0.17 | 1521.3 ± 1.4 | 994.624 ± 0.18 | 1530.4 ± 1.4 | 992.807 ± 0.18 | – | –
O=C([O-])[O-].[Na+].[Na+] [sodium carbonate] + O | 1473.1 ± 1.4 | 1003.04 ± 0.17 | 1489.1 ± 1.4 | 1002.09 ± 0.17 | 1503 ± 1.4 | 1000.88 ± 0.17 | 1515.2 ± 1.4 | 999.439 ± 0.17 | 1525.7 ± 1.4 | 997.791 ± 0.17 | 1534.6 ± 1.4 | 995.95 ± 0.17 | – | –
[Cl-].[Na+] [sodium chloride] + O | 1468.8 ± 1.5 | 1000.55 ± 0.2 | 1484.9 ± 1.5 | 999.636 ± 0.2 | – | 998.457 ± 0.2 | 1511.3 ± 1.5 | 997.046 ± 0.2 | 1521.9 ± 1.5 | 995.419 ± 0.2 | 1530.9 ± 1.5 | 993.592 ± 0.2 | – | –
O=[N+]([O-])[O-].[Na+] [sodium nitrate] + O | 1468.2 ± 1.5 | 1001.14 ± 0.2 | 1484.2 ± 1.5 | 1000.21 ± 0.2 | 1498.3 ± 1.5 | 999.017 ± 0.2 | 1510.5 ± 1.5 | 997.592 ± 0.2 | 1521.1 ± 1.5 | 995.954 ± 0.2 | 1530.1 ± 1.5 | 994.12 ± 0.2 | – | –
O=S(=O)([O-])[O-].[Na+].[Na+] [sodium sulfate] + O | 1472.6 ± 1.6 | 1003.68 ± 0.26 | 1488.6 ± 1.6 | 1002.73 ± 0.26 | 1502.6 ± 1.6 | 1001.52 ± 0.26 | 1514.8 ± 1.6 | 1000.09 ± 0.26 | 1525.3 ± 1.6 | 998.436 ± 0.26 | 1534.2 ± 1.6 | 996.589 ± 0.26 | – | –
C[N+](C)(C)C.[Cl-] [tetramethylammonium chloride] + O | 1470.2 ± 1.8 | 999.201 ± 0.42 | 1486.1 ± 1.9 | 998.29 ± 0.42 | 1500.1 ± 1.9 | 997.12 ± 0.42 | 1512.3 ± 1.9 | 995.716 ± 0.42 | 1522.8 ± 1.9 | 994.093 ± 0.42 | 1531.7 ± 1.9 | 992.272 ± 0.42 | – | –
O=C([O-])CC(O)(CC(=O)[O-])C(=O)[O-].[Na+].[Na+].[Na+] [trisodium citrate] + O | 1474.7 ± 1.6 | 1005.71 ± 0.26 | 1490.6 ± 1.6 | 1004.75 ± 0.26 | 1504.5 ± 1.6 | 1003.53 ± 0.26 | 1516.7 ± 1.6 | 1002.08 ± 0.26 | 1527.1 ± 1.6 | 1000.42 ± 0.26 | 1536 ± 1.6 | 998.572 ± 0.26 | – | –
O [water] | – | – | – | – | – | – | – | – | – | – | – | – | 1529.2 ± 1.2 | –
